Reference: US20260374766A1, “METHODS FOR TREATING CANCER” (Antares Therapeutics, Inc., priority 2022, published 2026)
Like-named read-outs stand apart in the source and are kept apart here.

Experiments:
p53 Y220C = p53 Y220C (Homo sapiens, UniProt P04637, Y220C); assay: Luciferase Reporter Assay (Luc), p53 response element, NClH1299 cells with inducible p53 Y220C; type: cell-based; details: 6 hour; for AC50: read-out: Luc P53 Y220C AC50
Protocol: Luciferase Reporter Assay Protocol
The cells were then used for p53 reporter assay. 5,000 cells were seeded in each well of 384 plate and cultured in 0.5 ug/mL doxycycline (D3072; Sigma) containing medium for 24 hours before compound treatment. After 6 hour of compound treatment, equal volume of One-Glo reagent (E6110; Promega) was added to each well and the plate was incubated for 5 minutes with shaking at room temperature. The luciferase activity was immediately measured with PheraStar microplate reader.

H1299 p53 R273H = assay: Cell Proliferation Assay (CellTiter-Glo, CTG), H1299 p53 R273H (NClH1299-inducible p53 R273H); type: cell-based; details: Homo sapiens, NCI-H1299, 120 h, 5 days
Protocol: (§1) Inducible p53 Y220C and R273H constructs (Tet-One inducible expression system; Takara) were stably expressed in NClH1299 cells by lentiviral transduction. NUGC3, A549, BxPC3, T3M4, HuH7, HCC2935, MFE296, NClH1299, NClH1299-inducible p53 Y220C, and NClH1299-inducible p53 R273H cell lines were used for cell proliferation assay. 250-500 cells were seeded in each well of 384 plate and then compounds were dispensed into each well using Echo or Tecan. After 5 days of incubation, equal volume of CellTiter-Glo reagent (G7570; Promega) was added into each well and the plate was incubated at room temperature for 10 minutes with shaking. The luminescent signal was measured by PheraStar microplate reader and IC50 was calculated.

H1299 p53 Y220C = assay: Cell Proliferation Assay (CellTiter-Glo, CTG), H1299 p53 Y220C (NClH1299-inducible p53 Y220C); type: cell-based; details: Homo sapiens, NCI-H1299, 120 h, 5 days
Protocol: as §1

NUGC3 p53 Y220C = assay: Cell Proliferation Assay (CellTiter-Glo, CTG), NUGC3 p53 Y220C; type: cell-based; details: Homo sapiens, NUGC-3, 120 h, 5 days
Protocol: as §1

[1] = biological target: T1, p53 Y220C mutant protein (amino acid residues 94-293) (Homo sapiens, UniProt P04637, Y220C); assay: Surface Plasmon Resonance (SPR) assay, Kd_kinetic; type: binding; details: SPR, p53 Y220C, read-out: SPR P53 Y220C KD kinetic
T1 construct: p53 Y220C mutant protein (amino acid residues 94-293)
Protocol: Surface Plasmon Resonance (SPR) Assay Protocol
SPR experiments were performed on a Biacore 8K instrument. […] The running buffer contained 50 mM Tris, pH 7.5, 100 mM NaCl, 1 mM DTT, 0.01% Brij35, 0.05% Tween-20 and 1% DMSO. The assay temperature was maintained at 16 or 20 °C and data were fit into the 1:1 binding model using the Biacore Insight Evaluation software.

[2] = AC50, NClH1299 cells with inducible p53 Y220C
[3] = Emax, NClH1299 cells with inducible p53 Y220C, 10 uM tool compound as positive control
[4] = NClH1299-inducible p53 R273H cells
[5] = NClH1299-inducible p53 Y220C cells
[6] = AC50, luciferase reporter, NClH1299 inducible p53 Y220C
[7] = Emax, luciferase reporter, NClH1299 inducible p53 Y220C
[8] = NClH1299-inducible p53 R273H cells, CellTiter-Glo
[9] = NClH1299-inducible p53 Y220C cells, CellTiter-Glo

T1 sequence (P04637 94-293, stated change not applied): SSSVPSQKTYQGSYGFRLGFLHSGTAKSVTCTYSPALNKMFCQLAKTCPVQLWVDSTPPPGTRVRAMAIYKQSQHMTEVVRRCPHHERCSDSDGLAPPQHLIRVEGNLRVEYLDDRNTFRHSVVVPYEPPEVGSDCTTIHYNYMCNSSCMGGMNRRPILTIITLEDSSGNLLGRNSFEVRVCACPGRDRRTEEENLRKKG

Structure (SMILES)	AC50 (p53 Y220C; [2]) [nM]	Emax (p53 Y220C; [3]) [%]	IC50 (H1299 p53 R273H; [4]) [nM]	IC50 (H1299 p53 Y220C; [5]) [nM]	IC50 (NUGC3 p53 Y220C; NUGC3 cells) [nM]	Kd [1] [nM]	AC50 (p53 Y220C; [6]) [nM]	Emax (p53 Y220C; [7]) [%]	IC50 (H1299 p53 R273H; [8]) [nM]	IC50 (H1299 p53 Y220C; [9]) [nM]	IC50 (NUGC3 p53 Y220C; NUGC3 cells, CellTiter-Glo) [nM]	Emax (p53 Y220C; luciferase reporter, NClH1299 inducible p53 Y220C, 10 uM tool compound as positive control) [%]	AC50 (p53 Y220C; luciferase reporter, NClH1299 inducible p53 Y220C) [nM]	IC50 (H1299 p53 R273H; CellTiter-Glo, H1299 p53 R273H) [nM]	IC50 (H1299 p53 Y220C; CellTiter-Glo, H1299 p53 Y220C) [nM]	IC50 (NUGC3 p53 Y220C; CellTiter-Glo, NUGC3 p53 Y220C) [nM]	Kd ([1]; kinetic KD) [nM]
COc1ccc(C(=O)N[C@@H](C)[C@H](C)O)cc1NCC#Cc1cc2c(N[C@@H]3CCN(C)C[C@@H]3F)cccn2c1SC(F)(F)F [Example 456]	< 750	> 90	≥ 10000	< 750	< 750	< 10	–	–	–	–	–	–	–	–	–	–	–
CNC(=O)c1ccc(OC)c(NCC#Cc2cn3c(N[C@@H]4CCN(C)C[C@@H]4F)cccc3c2SC(F)(F)F)c1 [Example 393]	–	–	–	–	–	< 10	< 750	> 90	5000 to 8000	< 750	< 750	–	–	–	–	–	–
CNC(=O)c1ccc(NCC#Cc2cc3c(N[C@@H]4CCN(C)C[C@@H]4F)nccn3c2SC(F)(F)F)c(C#N)c1 [Example 301]	–	–	–	–	–	< 10	750 to 1500	> 90	≥ 10000	750 to 1500	750 to 1500	–	–	–	–	–	–
CNC(=O)c1cnc(OC)c(NCC#Cc2nc3c(N[C@H]4C[C@@H]5CC[C@H]([C@H]4F)N5C)cccn3c2SC(F)(F)F)c1 [Example 266]	–	–	–	–	–	< 10	< 750	70 to 80	≥ 10000	< 750	< 750	–	–	–	–	–	–
COc1ccc(-c2ncc[nH]2)cc1NCC#Cc1nc2c(N[C@@H]3CCN(C)C[C@@H]3F)cccn2c1SC(F)(F)F [Example 220]	–	–	–	–	–	–	–	–	–	–	–	70 to 80	< 750	< 5000	< 750	< 750	< 10
CNC(=O)c1ccc(NCC#Cc2cc3c(N[C@@H]4CCNC[C@@H]4F)cccn3c2SC(F)(F)F)cc1 [Example 492, 4-{[3-(8-{[(3S,4R)-3-fluoropiperidin-4-yl]amino}-3-[(trifluoromethyl)sulfanyl]indolizin-2-yl)prop-2-yn-1-yl]amino}-N-methylbenzamide]	< 750	> 90	5000 to 8000	< 750	< 750	< 10	–	–	–	–	–	–	–	–	–	–	–
CNC(=O)c1ccc(OC)c(NCC#Cc2nc3c(N[C@H]4[C@H]5CC[C@@H]4NC5)cccn3c2SC(F)(F)F)c1 [Example 244]	–	–	–	–	–	< 10	> 3000	80 to 90	≥ 10000	1500 to 3000	750 to 1500	–	–	–	–	–	–
CNC(=O)c1cc(NCC#Cc2cc3c(N[C@@H]4CCN(C)C[C@@H]4F)cccn3c2SC(F)(F)F)c2nncn2c1 [Example 483, 8-{[3-(8-{[(3S,4R)-3-fluoro-1-methylpiperidin-4-yl]amino}-3-[(trifluoromethyl)sulfanyl]indolizin-2-yl)prop-2-yn-1-yl]amino}-N-methyl-[1,2,4]triazolo[4,3-a]pyridine-6-carboxamide]	< 750	> 90	≥ 10000	< 750	< 750	< 10	–	–	–	–	–	–	–	–	–	–	–
CN1CC[C@@H](Nc2cccn3c(SC(F)(F)F)c(C#CCNc4ccc(C(=O)NC[C@@H](O)CO)cc4)cc23)[C@@H](F)C1 [Example 384]	–	–	–	–	–	< 10	< 750	> 90	≥ 10000	< 750	< 750	–	–	–	–	–	–
[2H]C([2H])([2H])Oc1cc(C(=O)NC)ccc1NCC#Cc1cc2c(N[C@@H]3CCN(C)C[C@@H]3F)cccn2c1SC(F)(F)F [Example 442, 4-((3-(8-(((3S,4R)-3-fluoro-1-methylpiperidin-4-yl)amino)-3-((trifluoromethyl)thio)indolizin-2-yl)prop-2-yn-1-yl)amino)-3-(methoxy-d3)-N-methylbenzamide]	–	–	–	–	–	< 10	< 750	80 to 90	5000 to 8000	< 750	< 750	–	–	–	–	–	–
CNC(=O)c1ccc(OC)c(NCC#Cc2cc3c(N[C@@H]4CCN(C)C[C@@H]4F)nccn3c2SC(F)F)n1 [Example 333]	–	–	–	–	–	< 10	< 750	> 90	≥ 10000	< 750	< 750	–	–	–	–	–	–
COc1cc(C(N)=O)ccc1NCC#Cc1cc2c(N[C@@H]3CCN(C)C[C@@H]3F)cccn2c1SC(F)(F)F [Example 464]	< 750	> 90	≥ 10000	< 750	< 750	< 10	–	–	–	–	–	–	–	–	–	–	–
CNC(=O)c1ccc(C#N)c(NCC#Cc2nc3c(N[C@@H]4CCN(C)C[C@@H]4F)cccn3c2SC(F)(F)F)c1 [Example 224]	–	–	–	–	–	< 10	< 750	> 90	≥ 10000	< 750	< 750	–	–	–	–	–	–
COc1cc(S(C)(=O)=O)ccc1NCC#Cc1nn2c(N[C@@H]3CCN(C)C[C@@H]3F)cccc2c1SC(F)(F)F [Example 363]	–	–	–	–	–	< 10	< 750	80 to 90	≥ 10000	< 750	< 750	–	–	–	–	–	–
CNC(=O)c1ccc(OC)c(NCC#Cc2nc3c(N[C@@H]4CN(C)C[C@@H]4F)cccn3c2CC(F)(F)F)n1 [Example 262]	–	–	–	–	–	< 10	750 to 1500	70 to 80	≥ 10000	< 750	750 to 1500	–	–	–	–	–	–
COc1ccc(C(=O)NCC2(O)CC2)cc1NCC#Cc1cc2c(N[C@@H]3CCN(C)C[C@@H]3F)cccn2c1SC(F)(F)F [Example 417]	–	–	–	–	–	< 10	< 750	> 90	≥ 10000	< 750	< 750	–	–	–	–	–	–
CNC(=O)c1ccc(O)c(NCC#Cc2cc3c(N[C@@H]4CCNC[C@@H]4F)cccn3c2SC(F)(F)F)c1 [Example 477, 3-{[3-(8-{[(3S,4R)-3-fluoropiperidin-4-yl]amino}-3-[(trifluoromethyl)sulfanyl]indolizin-2-yl)prop-2-yn-1-yl]amino}-4-hydroxy-N-methylbenzamide]	< 750	80 to 90	≥ 10000	< 750	< 750	< 10	–	–	–	–	–	–	–	–	–	–	–
COc1cc(C(N)=O)ccc1NCC#Cc1nn2c(N[C@@H]3CCN(C)C[C@@H]3F)cccc2c1SC(F)F [Example 286]	–	–	–	–	–	< 10	< 750	> 90	≥ 10000	< 750	< 750	–	–	–	–	–	–
